According to patent US10278965B2, “Method of detecting cancer stem cell, method of screening cancer stem cell, and method of inhibiting cancer stem cell” (CANON KABUSHIKI KAISHA, priority 2012, dated 2019):

Tests used:
[1] = system: Human pancreas cancer cells, KLM-1; assay: Cancer cell inhibitory (growth suppressive) action against pancreatic cancer cells, CellTiter-Glo viable cell count; conditions: KLM-1, 10 μg/mL, 24 hours
Description: Human pancreas cancer cells, KLM-1, were pre-cultured in RPMI1640 medium containing 10% FBS at 37° C. in a 5% CO2 ambient. Thereafter, 4,000 cells were seeded per well of a 96-well plate and further cultured for 24 hours. […] The cultured cells were analyzed for viable cell count according to CellTiter-Glo Luminescent Cell Viability Assay (manufactured by Promega KK.).
Evaluation of cancer cell inhibition against the pancreatic cancer cells (KLM-1) (growth suppression) was made based on the following criteria. Note that the growth rate used in Examples refers to the rate (expressed by percentage) of viable cell count after culture relative to the number of cells at the initiation of cell culture.

[2] = system: Human chronic myelocytic leukemia cells, K562, ALDH (+) fraction (cancer stem cells); assay: Cancer stem-cell selective inhibitory action against chronic myelocytic leukemia cells, ALDH (+) fraction; type: cell-based; conditions: 24 hours; for ALDH(+) Superiority evaluation / ALDH(+)/ALDH(−): K562, 10 μg/ml; for ALDH(+) growth rate / Growth suppression evaluated: K562 ALDH(+), 10 μg/ml
Description: (§1) Human chronic myelocytic leukemia cells, K562, were pre-cultured in RPMI1640 medium containing 10% FBS at 37° C. in a 5% CO2 ambient. Then, a fraction containing 80% or more of cancer stem cells was extracted by use of a cancer stem cell marker, ALDEFLUOR reagent (manufactured by VERITAS Corporation) and FACSAria flow cytometry (manufactured by Nippon Becton, Dickinson and Company). […] The cultured cells were analyzed for viable cell count according to CellTiter-Glo Luminescent Cell Viability Assay (manufactured by Promega KK.). […] Note that hereinafter, an ALDEFLUOR reagent positive fraction (deemed as cancer stem cells) is represented by ALDH (+), whereas an ALDEFLUOR reagent negative fraction (not deemed as cancer stem cells) is represented by ALDH (−), in some cases.
(§2) Further, the growth suppressive effect of cancer stem cells was evaluated based on the following criteria. Note that the growth rate in Examples is a value obtained by dividing viable cell count after culture by the number of cells at the initiation time of culture.

[3] = system: Prostatic cancer cells, PC-3; assay: Cancer cell inhibitory (growth suppressive) action against prostatic cancer cells, CellTiter-Glo viable cell count; type: cell-based; conditions: PC-3, 10 μg/mL, 24 hours
Description: Prostatic cancer cells, PC-3, were pre-cultured in RPMI1640 medium containing 10% FBS at 37° C. in a 5% CO2 ambient. Thereafter, 4,000 cells were seeded per well of a 96-well plate and further cultured for 24 hours. Subsequently, Compound (1) was added to the medium so as to obtain a final concentration of 10 μg/mL and cultured at 37° C. for 24 hours in a 5% CO2 ambient. The cultured cells were analyzed for viable cell count according to Cell Titer-Glo Luminescent Cell Viability Assay (manufactured by Promega KK.).
Viable cell count was analyzed in the same manner as in Experimental Example 24 except that Compound (1) of Experimental Example 24 was changed to each compound shown in Table 2.
Viable cell count was analyzed in the same manner as in Experimental Example 24 except that Compound (1) of Experimental Example 24 was changed to each of Comparative compounds 1 to 4, to obtain growth rates.
Note that the growth rate used in Examples refers to the rate (expressed by percentage) of viable cell count after culture relative to the number of cells at the initiation of cell culture. Evaluation criteria are the same as in the above experiments.

[4] = Measurement of fluorescent property of compound; type: physicochemical; conditions: 5 μM DMSO solution
Description: The excitation wavelength and fluorescence wavelength of the compound were measured by a FL4500 spectrofluorometric measuring machine manufactured by Hitachi High-Technologies Corporation.

[5] = system: Human chronic myelocytic leukemia cells, K562, ALDH (−) fraction (general cancer cells); assay: Cancer stem-cell selective inhibitory action against chronic myelocytic leukemia cells, ALDH (−) fraction; type: cell-based; conditions: K562 ALDH(−), 10 μg/ml, 24 hours
Description: as §1, §2

[6] = system: KLM1-KOr cells, ALDH (+) fraction, transplanted to zebra young fish; assay: Cancer metastasis suppressive effect in cancer cell metastatic foci (region within 300 to 450 μm from a transplanted tumor); type: in vivo; conditions: 72 hours later, region within 300 to 450 μm from transplanted tumor; for Inhibition rate 100×(1−F1/F0), metastatic foci: administered to yolk sac 24 hours after transplantation (Compound (26) 745 μmol/KgBW)
Description: From cell strain […], in which KLM1 cells have fluorescent protein Kusabira-Orange constantly expressed, a fraction (ALDH (+)) containing 80% or more of cancer stem cells was extracted with ALDEFLUOR reagent (manufactured by VERITAS Corporation) and FACSAria flow cytometry (manufactured by Nippon Becton, Dickinson and Company). The extracted KLM1-KOr cells were transplanted to zebra young fish (MieKomachi lineage, 2 days after fertilization) and the fish were raised in a 32° C. environment. Furthermore, 24 hours after transplantation, Compound (26) (745 μmol/KgBW) was administered to yolk sac.
72 hours later, cells transplanted to the zebra young fish were observed under MZ16F fluorescent stereoscopic microscope (manufactured by Leica Microsystems) and a fluorescent image of the region within 300 to 450 μm from a transplanted tumor was photographed and then fluorescent intensity was quantified.
As a reference, the fluorescent intensity of cells, which were cultured in the same operation method as above in a medium containing a 0.1% DMSO solution in place of Compound (26), was used.
Fluorescent images were photographed in the same manner as in Experimental Example 26 except that Imatinib and Dasatinib were respectively used in place of the compound (26) in Experimental Example 75.
The inhibition rate herein was obtained according to the expression: 100×(1−F1/F0), where the fluorescent intensity of cells when a test substance was added is represented by F1, and the fluorescent intensity of cells when a reference substance (DMSO) was added is represented by F0.

Row | Compound | Cancer cell growth rate (%) [1] | Evaluation (cancer cell growth rate) [1] | ALDH(+) Superiority evaluation [2] | ALDH(+)/ALDH(−) [2] | Cancer cell growth rate (%) [3] | Evaluation (cancer cell growth rate) [3] | Excitation wavelength λex [4] | Fluorescence wavelength λem [4] | ALDH(+) growth rate [2] | Growth suppression evaluated [2] | ALDH(−) growth rate [5] | Inhibition rate 100×(1−F1/F0), metastatic foci [6] | Evaluation (inhibition rate, metastatic foci) [6]
1 | CCN1/C(=C\C(C)=C\c2sc3ccccc3[n+]2CC)Sc2ccccc21 [Compound 5] | 6.4% | A (Cancer cell growth rate is less than 20%) | A (The value of the growth rate of ALDH (+)/the growth rate of ALDH (−) is less than 0.8) | 0.79 | 15.0% | A (Cancer cell growth rate is less than 20%) | 560 nm | 628 nm | – | – | – | – | –
2 | CCN1/C(=C\C=C\c2oc3ccccc3[n+]2CC)Oc2ccccc21 [Compound 14] | – | – | A (The value of the growth rate of ALDH (+)/the growth rate of ALDH (−) is less than 0.8) | 0.77 | – | – | 491 nm | 510 nm | 0.38 | A (The growth rate of ALDH (+) is less than 0.5) | 0.49 | – | –
3 | Cc1nc(Nc2ncc(C(=O)Nc3c(C)cccc3Cl)s2)cc(N2CCN(CCO)CC2)n1 [Dasatinib] | – | – | – | – | – | – | – | – | – | – | – | 36 | C (Inhibition rate is less than 50)
4 | CCN1/C(=C\C=C\c2sc3ccccc3[n+]2CC)Sc2ccccc21 [Compound 1] | 31.9% | B (Cancer cell growth rate is 20% or more and less than 50%) | B (The value of the growth rate of ALDH (+)/the growth rate of ALDH (−) is 0.8 or more and less than 0.95) | 0.87 | 13.8% | A (Cancer cell growth rate is less than 20%) | 485 nm | 575 nm | – | – | – | – | –
5 | CCCN1\C(=C/C=C/C=C/C2=[N+](CCC)c3ccccc3C2(C)C)C(C)(C)c2ccccc21 [Compound 27] | 6.0% | A (Cancer cell growth rate is less than 20%) | A (The value of the growth rate of ALDH (+)/the growth rate of ALDH (−) is less than 0.8) | 0.56 | 7.7% | A (Cancer cell growth rate is less than 20%) | 650 nm | 675 nm | – | – | – | – | –
6 | CCN1C=C/C(=C/C=C/c2sc3ccccc3[n+]2CC)c2ccccc21.[I-] [Compound 34] | 26.6% | B (Cancer cell growth rate is 20% or more and less than 50%) | A (The value of the growth rate of ALDH (+)/the growth rate of ALDH (−) is less than 0.8) | 0.72 | – | – | 638 nm | 661 nm | 0.48 | A (The growth rate of ALDH (+) is less than 0.5) | 0.67 | – | –
7 | CCN1/C(=C/C=C2\CCCC(/C=C/C3=[N+](CC)c4ccc(OC)cc4C34CCCCC4)=C2Oc2ccc(C(c3ccccc3)c3ccccc3)cc2)C2(CCCCC2)c2cc(OC)ccc21 [Compound 58] | – | – | B (The value of the growth rate of ALDH (+)/the growth rate of ALDH (−) is 0.8 or more and less than 0.95) | 0.82 | – | – | – | – | 0.70 | B (The growth rate of ALDH (+) is 0.5 or more and less than 0.95) | 0.85 | – | –
8 | CCN1/C(=C/C=C/C=C/C=C/c2oc3ccccc3[n+]2CC)Oc2ccccc21 [Compound 33] | – | – | B (The value of the growth rate of ALDH (+)/the growth rate of ALDH (−) is 0.8 or more and less than 0.95) | 0.84 | – | – | – | – | 0.83 | B (The growth rate of ALDH (+) is 0.5 or more and less than 0.95) | 1.00 | – | –
9 | CN1/C(=C/C=C2\CCCC(/C=C/C3=[N+](C)c4ccc5ccccc5c4C3(C)C)=C2Cl)C(C)(C)c2c1ccc1ccccc21 [Compound 49] | 12.0% | A (Cancer cell growth rate is less than 20%) | – | – | 5.3% | A (Cancer cell growth rate is less than 20%) | 830 nm | 831 nm | – | – | – | – | –
10 | CCN1/C(=C\C=C\C2=[N+](CC)c3ccccc3C2(C)C)C(C)(C)c2ccccc21.[I-] [Compound 22] | – | – | A (The value of the growth rate of ALDH (+)/the growth rate of ALDH (−) is less than 0.8) | 0.75 | – | – | 553 nm | 570 nm | 0.22 | A (The growth rate of ALDH (+) is less than 0.5) | 0.29 | – | –
11 | CN1\C(=C/C=C/C=C/C2=[N+](C)c3ccc4ccccc4c3C2(C)C)C(C)(C)c2c1ccc1ccccc21 [Compound 26] | 8.6% | A (Cancer cell growth rate is less than 20%) | – | – | – | – | 684 nm | 710 nm | – | – | – | 80 | A (Inhibition rate is 70 or more)
12 | CCN1C=C/C(=C/C=C/c2cc[n+](CC)c3ccccc23)c2ccccc21 [Compound 46] | 16.7% | A (Cancer cell growth rate is less than 20%) | – | – | 17.7% | A (Cancer cell growth rate is less than 20%) | 679 nm | 715 nm | – | – | – | – | –
13 | CCCCN1/C(=C/C=C2\CCCC(/C=C/C3=[N+](CCCC)c4ccccc4C3(C)C)=C2Cl)C(C)(C)c2ccccc21 [Compound 43] | 35.6% | B (Cancer cell growth rate is 20% or more and less than 50%) | – | – | 12.3% | A (Cancer cell growth rate is less than 20%) | 797 nm | 816 nm | – | – | – | – | –
